Entries after “also recorded” stand apart in the source; their conditions may differ.
Assays:
[1] = Study 5: weight loss to 20% with ketogenic agents vs caloric restriction, then return to ad libitum standard diet (weight loss maintenance); assay type: in vivo; conditions: C57BL/6J; for food efficiency during weight loss maintenance (bodyweight regain proportional to calories consumed, FIG. 6): after cessation of agent, ad libitum SD, compared to caloric restriction and butanediol; for weight loss as ratio to kcal of ketogenic agent per total daily intake (FIGS. 4A-4B): compared to butanediol, BHB+MCT, BHB; for weight loss as a ratio to caloric intake/day (FIG. 5B): compared to BHB, BHB+MCT and CR groups
Source text: FIGS. 4A-4B depict results of weight loss induced by various ketogenic agents against regular SD caloric restriction, illustrating the effectiveness of various ketogenic agents for inducing weight loss. Treatments: Beta-Hydroxybutyrate (BHB); Beta-Hydroxybutyrate+Medium Chain Triglycerides (BHB+MCT); Butanediol (BD); R,S 1,3-Butanediol Acetoacetate Diester (KE).
FIGS. 5A-5B depict treatment timeline of weight loss study utilizing various ketogenic agents against SD caloric restriction, as well as evaluation of weight loss potency of each ketogenic agent. Treatments: Standard Diet ad-Libitum (SD-AL); Standard Diet Caloric Restriction (CR); Beta-Hydroxybutyrate (BHB); Beta-Hydroxybutyrate+Medium Chain Triglycerides (BHB+MCT); Butanediol (BD); R,S 1,3-Butanediol Acetoacetate Diester (KE). […] These reductions in bodyweight were at lower percentages of the ketogenic agent within the food. Additionally, KE animals reach target weight loss at much LOWER % of ketogenic agent integrated into the diet.
FIG. 6 depicts food efficiency during weight loss maintenance by calculating bodyweight regain proportional to calories consumed. Treatments: Standard Diet ad-Libitum (SD-AL); Standard Diet Caloric Restriction (CR); Beta-Hydroxybutyrate (BHB); Beta-Hydroxybutyrate+Medium Chain Triglycerides (BHB+MCT); Butanediol (BD); R,S 1,3-Butanediol Acetoacetate Diester (KE).
C57BL/6J animals were obtained. Prior to experimental initiation, animals were randomly assigned to one (1) of five (5) groups: Caloric Restriction with standard diet (SD), Beta-hydroxybutyrate with SD (BHB), BHB+Medium Chain Triglycerides with SD (BHB+MCT), 1,3-Butanediol with SD (BD), and R,S 1,3 Butanediol Acetoacetate Diester with SD (KE). All animals initiated weight loss by either reducing the amount of calories consumed (CR group) or adding various % of ketogenic agents to induce weight loss. There was no difference in bodyweight across groups at baseline. All animals underwent weight loss until 20% weight loss was achieved. Upon reaching 20% weight loss, animals were switched back onto ad-libitum SD.
Calories intake, bodyweight, and kcal of ketogenic agent in diet were recorded daily. In order to calculate the effectiveness of each agent to induce weight loss, weight loss as both grams and % weight loss, was compared as a ratio to the amount of kcal from each ketogenic agent compared to total kcals consumed a day.

[2] = Study 1: chronic ad libitum feeding trial, 28 days; assay type: in vivo; conditions: VM/Dk mice, 10-20% by weight in standard chow; for bodyweight (weight loss and its maintenance): males and females, compared to SD or KD chow ad libitum
Procedure: FIGS. 1A-1H depict results of a chronic ad libitum feeding trial of male and female mice (Standard Diet Male (n=7)=SD-M; Ketogenic Diet Male (n=7)=KD-M; R/S 1,3 Butanediol Acetoacetate Diester (n=4)=KE-M; Standard Diet Female (n=7)=SD-F; Ketogenic Diet Female (n=6)=KD-F; R/S 1,3 Butanediol Acetoacetate Diester Female (n=4)=KE-F).
R,S 1,3-butanediol diacetoacetate (KE; 10-20% by weight mixed into standard chow) was administered to VM/Dk mice at for both males and females for 28 days. Standard rodent chow (SD) and ketogenic diet chow (KD) were administered to other VM/Dk mice ad libitum for comparison.

[3] = Study 3: acute oral gavage trial, 7 days; assay type: in vivo, Sprague Dawley Rats; conditions: rats
Procedure: FIGS. 2A-2B depict results of an acute gavage trial in rats.
R,S 1,3 butanediol diacetoacetate (KE) was administered to Sprague Dawley Rats by oral gavage (at 5 mL/kg, which may translate to about 300-700 mg/kg for a human). Water, BHB-salt, or BHB-salt+MCT mixture was administered to other Sprague Dawley Rats for comparison. Animals were provided ad libitum access to standard rodent chow.

[4] = Study 4: chronic feeding trial, 15 weeks; assay type: in vivo, Sprague Dawley Rats; conditions: rats; for bodyweight (prevention of weight gain, maintaining a lower weight): in food, 25 g/kg/d, 15 weeks, compared to standard diet, BHB-S, S-MCT
Source text: FIG. 3 depicts results of a chronic feeding trial in rats. SD: standard rodent chow (fed ad libitum); LKE: low-dose R,S 1,3-butanediol diacetoacetate (approx. 5 g/kg/day in food); HKE: high-dose R,S 1,3-butanediol diacetoacetate (approx. 25 g/kg/day in food); BHB-S: beta-hydroxybutyrate salt (approx. 25 g/kg/day in food); S-MCT: 1:1 beta-hydroxybutyrate salt: medium chain triglyceride oil (approx. 25 g/kg/day).

[5] = agent in standard diet until 20% weight loss

Compound | food efficiency during weight loss maintenance (bodyweight regain proportional to calories consumed, FIG. 6) [1] | food efficiency during weight loss maintenance (bodyweight regain proportional to calories consumed, FIG. 6) ([1]; listed as R,S 1,3-butanediol diacetoacetate) | speed of bodyweight reduction and % of agent in the diet needed (FIG. 5A) [1, 5] | weight loss as ratio to kcal of ketogenic agent per total daily intake (FIGS. 4A-4B) [1, 5] | weight loss as ratio to kcal of ketogenic agent per total daily intake (FIGS. 4A-4B) ([1]; agent in standard diet until 20% weight loss, listed as R,S 1,3 Butanediol Acetoacetate diester) | weight loss as a ratio to caloric intake/day (FIG. 5B) [1] | white adipose tissue ([2]; compared to SD or KD) | bodyweight (weight loss and its maintenance) [2] | bodyweight (weight loss and its maintenance) ([2]; listed as ketone diester) | bodyweight (prevention of weight gain, maintaining a lower weight) ([3]; gavage 5 g/kg once daily (5 mL/kg), ad libitum standard chow, compared to water, BHB-S, S-MCT, p<0.01) | calorie intake (self-restriction) ([3]; gavage once daily, ad libitum access to standard rodent chow) | Approximate caloric intake compared to controls following adaptation to diet (weeks 13-15) ([4]; approx. 25 g/kg/day in food) | bodyweight (prevention of weight gain, maintaining a lower weight) [4] | bodyweight (prevention of weight gain, maintaining a lower weight) ([4]; listed as R,S 1,3 butanediol diacetoacetate) | Approximate caloric intake compared to controls following adaptation to diet (weeks 13-15) ([4]; low dose, approx. 5 g/kg/day in food) | food efficiency during weight loss maintenance (bodyweight regain proportional to calories consumed, FIG. 6) ([1]; listed as BHB)
CC(=O)CC(=O)OCCC(C)OC(=O)CC(C)=O (stereo not shown) [KE, R,S 1,3-butanediol diacetoacetate] | more effective at inducing inefficiencies in kcal consumed; also recorded: had lingering effects on food efficiency and weight loss maintenance | help contribute to maintenance of weight loss after cessation of weight loss intervention by reducing food efficiency | induced a quicker reduction in bodyweight; also recorded: induces more rapid weight loss | superior per kcal used at inducing weight loss | superior weight loss agent per total average daily intake | significantly more potent at inducing weight loss when divided by total caloric intake | induce reductions in white adipose tissue | induced and maintained long-term weight loss | lost significantly more bodyweight | more effective than BHB-S, S-MCT, or Control at preventing weight gain and maintaining a lower weight; also recorded: significantly lower bodyweight | self-restricted calories | ~−7% kcal | more effective than BHB-S or S-MCT at preventing weight gain and maintaining a lower weight | significantly lower bodyweight | ~+10% kcal | –
beta-hydroxybutyrate salt [BHB-S, reference compound] | help contribute to maintenance of weight loss after cessation of weight loss intervention by reducing food efficiency | – | – | – | – | could be explained by caloric restriction alone | – | – | – | – | – | ~−25% kcal | – | – | – | more effective at inducing inefficiencies in kcal consumed; also recorded: had lingering effects on food efficiency and weight loss maintenance; also recorded: helped maintain weight loss post cessation of agent administration

Reference: US12310938B2, “Compositions and methods for weight loss maintenance” (priority 2017, dated 2025)
